# Experimental data as given in ChEMBL document CHEMBL4118101 (Bioorg Med Chem, 2018).
# Activity calls are given as the source filed them. The calls are words filed in the database; no cut-off is given here.
# Key:
# Cryptococcus neoformans [1] = assay: Antifungal activity against Cryptococcus neoformans isolate CN2 measured after 48 hrs by CLSI M27-A3 protocol based method; format: functional; conditions: Cryptococcus neoformans, isolate CN2, 48 h; read-out: MIC
# Candida parapsilosis [2] = assay: Fungistatic activity against Candida parapsilosis ATCC 22019 up to 4 times MIC incubated for 24 hrs by time kill assay; format: functional, organism-based
# [3] = Hemolytic activity in mouse RBC at 3.9 ug/ml after 1 hr relative to control; format: ADME, cell-based, Erythrocyte; conditions: mouse red blood cells (erythrocytes), read-out: Activity
# Candida parapsilosis [4] = assay: Antifungal activity against Candida parapsilosis ATCC 22019 measured after 48 hrs in presence of 10% FBS by CLSI M27-A3 protocol based method; format: functional; conditions: Lodderomyces parapsilosis, ATCC 22019, 48 h
# Candida albicans [5] = assay: Antifungal activity against fluconazole/ITC-resistant Candida albicans ATCC MYA-1237 measured after 48 hrs by CLSI M27-A3 protocol based method; format: functional; conditions: Candida albicans, ATCC MYA-1237, 48 h; read-out: MIC
# [6] = Hemolytic activity in mouse RBC at 1.95 ug/ml after 1 hr relative to control; format: ADME, cell-based, Erythrocyte; conditions: mouse red blood cells (erythrocytes), at 1.95 µg/mL, read-out: Activity
# Candida albicans [7] = assay: Antifungal activity against fluconazole/ITC-resistant Candida albicans ATCC 90819 measured after 48 hrs by CLSI M27-A3 protocol based method; format: functional; conditions: Candida albicans, ATCC 90819, 48 h; read-out: MIC
# Candida albicans [8] = assay: Antifungal activity against fluconazole/ITC-susceptible Candida albicans ATCC MYA-2310 measured after 48 hrs by CLSI M27-A3 protocol based method; format: functional; conditions: Candida albicans, ATCC MYA-2310, 48 h; read-out: MIC
# Candida albicans [9] = assay: Fungistatic activity against Candida albicans ATCC 10231 at 4 times MIC incubated for 24 hrs by time kill assay; format: functional, organism-based
# Candida albicans [10] = assay: Antifungal activity against fluconazole/ITC-resistant Candida albicans ATCC MYA-1003 measured after 48 hrs by CLSI M27-A3 protocol based method; format: functional; conditions: Candida albicans, ATCC MYA-1003, 48 h; read-out: MIC
# Candida albicans [11] = assay: Antifungal activity against Candida albicans ATCC 64124 measured after 48 hrs by CLSI M27-A3 protocol based method; format: functional; conditions: Candida albicans, ATCC 64124, 48 h; read-out: MIC
# Candida parapsilosis [12] = assay: Antifungal activity against Candida parapsilosis isolate CP1 measured after 48 hrs by CLSI M27-A3 protocol based method; format: functional; conditions: Lodderomyces parapsilosis, isolate CP1, 48 h
# Candida parapsilosis [13] = assay: Antifungal activity against Candida parapsilosis isolate CP2 measured after 48 hrs by CLSI M27-A3 protocol based method; format: functional; conditions: Lodderomyces parapsilosis, isolate CP2, 48 h
# Nakaseomyces glabratus [14] = assay: Antifungal activity against Candida glabrata isolate CG1 measured after 48 hrs by CLSI M27-A3 protocol based method; format: functional; conditions: Nakaseomyces glabratus, 48 h; read-out: MIC
# Aspergillus nidulans [15] = assay: Antifungal activity against Aspergillus nidulans ATCC 38163 measured after 48 hrs by CLSI M38-A2 protocol based method; format: functional; conditions: ATCC 38163, 48 h
# Aspergillus nidulans [16] = assay: Antifungal activity against Aspergillus nidulans ATCC 38163 measured after 48 hrs in presence of 10% FBS by CLSI M38-A2 protocol based method; format: functional; conditions: ATCC 38163, 48 h
# Nakaseomyces glabratus [17] = assay: Antifungal activity against Candida glabrata isolate CG3 measured after 48 hrs by CLSI M27-A3 protocol based method; format: functional; conditions: Nakaseomyces glabratus, 48 h; read-out: MIC
# [18] = Hemolytic activity in mouse RBC at […] ug/ml after 1 hr relative to control; format: ADME, cell-based, Erythrocyte; conditions: mouse red blood cells (erythrocytes), read-out: Activity
# Cryptococcus neoformans [19] = assay: Antifungal activity against Cryptococcus neoformans isolate CN3 measured after 48 hrs by CLSI M27-A3 protocol based method; format: functional; conditions: Cryptococcus neoformans, isolate CN3, 48 h; read-out: MIC
# [20] = Hemolytic activity in mouse RBC at 31.3 ug/ml after 1 hr relative to control; format: ADME, cell-based, Erythrocyte; conditions: mouse red blood cells (erythrocytes), at 31.3 µg/mL, read-out: Activity
# Pichia kudriavzevii = assay: Antifungal activity against Candida krusei ATCC 6258 measured after 48 hrs by CLSI M27-A3 protocol based method; format: functional; conditions: Pichia kudriavzevii, ATCC 6258, 48 h
# Cryptococcus neoformans [21] = assay: Antifungal activity against Cryptococcus neoformans isolate CN1 measured after 48 hrs by CLSI M27-A3 protocol based method; format: functional; conditions: isolate CN1, 48 h
# Candida albicans [22] = assay: Antifungal activity against Candida albicans ATCC 10231 measured after 48 hrs in presence of 10% FBS by CLSI M27-A3 protocol based method; format: functional; conditions: Candida albicans, ATCC 10231, 48 h
# Candida albicans [23] = assay: Induction of membrane permeabilization in Candida albicans ATCC 10231 assessed as membrane disruption at 4 times MIC after 1 hr by propidium iodide staining based fluorescence microscopy; format: functional, organism-based
# Candida parapsilosis [24] = assay: Antifungal activity against Candida parapsilosis isolate CP3 measured after 48 hrs by CLSI M27-A3 protocol based method; format: functional; conditions: Lodderomyces parapsilosis, isolate CP3, 48 h
# Aspergillus flavus = assay: Antifungal activity against Aspergillus flavus ATCC MYA-3631 measured after 48 hrs by CLSI M38-A2 protocol based method; format: functional; conditions: ATCC MYA-3631, 48 h
# [25] = Hemolytic activity in mouse RBC at 0.48 ug/ml after 1 hr relative to control; format: ADME, cell-based, Erythrocyte; conditions: mouse red blood cells (erythrocytes), read-out: Activity
# HEK293 = assay: Cytotoxicity against HEK293 cells at 7.8 ug/ml after 24 hrs by resazurin based assay; format: cell-based; conditions: human, hek293, 24 h
# Nakaseomyces glabratus [26] = assay: Antifungal activity against Candida glabrata ATCC 2001 measured after 48 hrs by CLSI M27-A3 protocol based method; format: functional, CBS 138; conditions: Nakaseomyces glabratus, CBS 138, 48 h; read-out: MIC
# [27] = Hemolytic activity in mouse RBC at 62.5 ug/ml after 1 hr relative to control; format: ADME, cell-based, Erythrocyte; conditions: mouse red blood cells (erythrocytes), read-out: Activity
# Candida parapsilosis [28] = assay: Antifungal activity against Candida parapsilosis ATCC 22019 measured after 48 hrs by CLSI M27-A3 protocol based method; format: functional; conditions: Lodderomyces parapsilosis, ATCC 22019, 48 h
# Aspergillus terreus = assay: Antifungal activity against Aspergillus terreus ATCC MYA-3633 measured after 48 hrs by CLSI M38-A2 protocol based method; format: functional; conditions: ATCC MYA-3633, 48 h
# [29] = Hemolytic activity in mouse RBC at 7.8 ug/ml after 1 hr relative to control; format: ADME, cell-based, Erythrocyte; conditions: mouse red blood cells (erythrocytes), read-out: Activity
# Candida albicans [30] = assay: Antifungal activity against fluconazole/ITC-susceptible Candida albicans ATCC MYA-2876 measured after 48 hrs by CLSI M27-A3 protocol based method; format: functional; conditions: Candida albicans, ATCC MYA-2876, 48 h
# Nakaseomyces glabratus [31] = assay: Antifungal activity against Candida glabrata isolate CG2 measured after 48 hrs by CLSI M27-A3 protocol based method; format: functional; conditions: Nakaseomyces glabratus, isolate CG2, 48 h; read-out: MIC
# Candida albicans [32] = assay: Antifungal activity against Candida albicans ATCC 10231 measured after 48 hrs by CLSI M27-A3 protocol based method; format: functional; conditions: ATCC 10231, 48 h
# A549 = assay: Cytotoxicity against human A549 cells up to 7.8 ug/ml after 24 hrs by resazurin based assay; format: cell-based; conditions: a549, 24 h
# BEAS-2B = assay: Cytotoxicity against human BEAS2B cells up to 7.8 ug/ml after 24 hrs by resazurin based assay; format: cell-based
Structure (SMILES),MIC (Cryptococcus neoformans [1]),"hemolysis at 1 h, 3.9 ug/ml [3]",MIC (Candida albicans [5]),"hemolysis at 1 h, 1.95 ug/ml [6]",MIC (Candida albicans [7]),MIC (Candida albicans [8]),MIC (Candida albicans [10]),MIC (Candida albicans [11]),MIC (Candida parapsilosis [12]),MIC (Candida parapsilosis [13]),MIC (Nakaseomyces glabratus [14]),MIC (Aspergillus nidulans [15]),MIC (Nakaseomyces glabratus [17]),"hemolysis at 1 h, 0.975 ug/ml [18]","hemolysis at 1 h, 15.6 ug/ml [18]",MIC (Cryptococcus neoformans [19]),"hemolysis at 1 h, 31.3 ug/ml [20]",MIC (Pichia kudriavzevii),MIC (Cryptococcus neoformans [21]),MIC (Candida parapsilosis [24]),other results
CCCCCCCCCCNCC(O)(Cn1cncn1)c1ccc(F)cc1F (stereo not given),0.61 µM,3%,19.8 µM,2%,9.9 µM,19.8 µM,19.8 µM,39.5 µM,0.15 µM,0.3 µM,4.9 µM,2.5 µM,9.9 µM,0%,33%,1.2 µM,92%,1.2 µM,0.61 µM,0.61 µM,"Activity (Candida parapsilosis [2]): Active; MIC (Candida parapsilosis [4]): 0.06 µg/mL; Activity (Candida albicans [9]): Active; MIC (Aspergillus nidulans [16]): 1.95 µg/mL; MIC (Candida albicans [22]): 0.48 µg/mL; Activity (Candida albicans [23]): inactive; MIC (Aspergillus flavus): 19.8 µM; hemolysis at 1 h, 0.48 ug/ml [25]: 0%; Activity (HEK293): Non-Toxic; MIC (Nakaseomyces glabratus [26]): 1.2 to 2.5 µM; hemolysis at 1 h, 62.5 ug/ml [27]: 100%; MIC (Candida parapsilosis [28]): 0.08 µM; MIC (Aspergillus terreus): 9.9 µM; hemolysis at 1 h, 7.8 ug/ml [29]: 8%; MIC (Candida albicans [30]): 9.9 µM; MIC (Nakaseomyces glabratus [31]): 1.2 µM; MIC (Candida albicans [32]): 1.2 µM"
CCCCCCCCCCCCCCCCNCC(O)(Cn1cncn1)c1ccc(F)cc1F (stereo not given),1 µM,3%,> 65.4 µM,6%,65.4 µM,8.1 to 65.4 µM,> 65.4 µM,> 65.4 µM,2 µM,1 µM,4.1 µM,8.1 µM,16.3 µM,5%,4%,1 µM,4%,8.1 µM,1 µM,2 µM,"Activity (A549): Non-Toxic; Activity (BEAS-2B): Non-Toxic; MIC (Aspergillus flavus): > 65.4 µM; hemolysis at 1 h, 0.48 ug/ml [25]: 4%; Activity (HEK293): Non-Toxic; MIC (Nakaseomyces glabratus [26]): 2 to 65.4 µM; hemolysis at 1 h, 62.5 ug/ml [27]: 8%; MIC (Candida parapsilosis [28]): 1 µM; MIC (Aspergillus terreus): > 65.4 µM; hemolysis at 1 h, 7.8 ug/ml [29]: 4%; MIC (Candida albicans [30]): 65.4 µM; MIC (Nakaseomyces glabratus [31]): 2 µM; MIC (Candida albicans [32]): > 65.4 µM"
